Experimental data from ChEMBL document CHEMBL3046502, “In vitro antimicrobial and antitubercular studies of novel 6-substituted (pyrrolidin-1-yl)-2(1H)-pyridinones” (2012).
≈ marks a conversion by molar mass, not a printed value.

Columns and labels:
Type in all cases: functional
Staphylococcus aureus = test: Antimicrobial activity against Staphylococcus aureus MTCC 96 by broth microdilution method
Escherichia coli = test: Antimicrobial activity against Escherichia coli MTCC 442 by broth microdilution method
Aspergillus niger = test: Antimicrobial activity against Aspergillus niger MTCC 282
Pseudomonas aeruginosa = test: Antimicrobial activity against Pseudomonas aeruginosa MTCC 2488 by broth microdilution method
Streptococcus pyogenes = test: Antimicrobial activity against Streptococcus pyogenes MTCC 443 by broth microdilution method
Aspergillus clavatus = test: Antimicrobial activity against Aspergillus clavatus MTCC 1323
Candida albicans = test: Antimicrobial activity against Candida albicans MTCC 227
[1] = test system: Mycobacterium tuberculosis; test: Antimicrobial activity against Mycobacterium tuberculosis H37Rv; conditions: for MIC: Mycobacterium tuberculosis, H37Rv

SMILES | MIC (Staphylococcus aureus) [µg/mL] | MIC (Escherichia coli) [µg/mL] | MIC (Aspergillus niger) [µg/mL] | MIC (Pseudomonas aeruginosa) [µg/mL] | MIC (Streptococcus pyogenes) [µg/mL] | MIC (Aspergillus clavatus) [µg/mL] | MIC (Candida albicans) [µg/mL] | inhibition (INH) [1] [%] | MIC [1] [µg/mL]
COc1ccc(-c2cc(N3CCCC3)n(-c3cccc(Cl)c3)c(=O)c2CN2CCCC2)cc1 | 500 (≈ 1080 µM) | 250 (≈ 539 µM) | 500 (≈ 1080 µM) | 500 (≈ 1080 µM) | 500 (≈ 1080 µM) | 1000 (≈ 2160 µM) | 500 (≈ 1080 µM) | – | –
COc1ccc(-c2cc(N3CCCC3)n(-c3cccc(Cl)c3)c(=O)c2/N=N/c2ccccc2[N+](=O)[O-])cc1 | 100 (≈ 189 µM) | 100 (≈ 189 µM) | 500 (≈ 943 µM) | 200 (≈ 377 µM) | 100 (≈ 189 µM) | 500 (≈ 943 µM) | 500 (≈ 943 µM) | – | –
COc1ccc(-c2cc(N3CCCC3)n(-c3cccc(Cl)c3)c(=O)c2Cn2cncn2)cc1 | 250 (≈ 541 µM) | 100 (≈ 216 µM) | 250 (≈ 541 µM) | 100 (≈ 216 µM) | 200 (≈ 433 µM) | 500 (≈ 1080 µM) | 200 (≈ 433 µM) | 98 | 500 (≈ 1080 µM)
COc1ccc(-c2cc(=O)n(-c3cccc(Cl)c3)c(N3CCCC3)c2/N=N/c2ccc([N+](=O)[O-])cc2)cc1 | 500 (≈ 943 µM) | 250 (≈ 472 µM) | > 1000 | 250 (≈ 472 µM) | 250 (≈ 472 µM) | 500 (≈ 943 µM) | 500 (≈ 943 µM) | – | –
COc1ccc(-c2cc(=O)n(-c3cccc(Cl)c3)c(N3CCCC3)c2/N=N/c2ccccc2)cc1 | 250 (≈ 515 µM) | 250 (≈ 515 µM) | 250 (≈ 515 µM) | 500 (≈ 1030 µM) | 250 (≈ 515 µM) | 500 (≈ 1030 µM) | 500 (≈ 1030 µM) | – | –
COc1ccc(-c2cc(N3CCCC3)n(-c3cccc(Cl)c3)c(=O)c2/N=N/c2cccc(C)c2)cc1 | 150 (≈ 301 µM) | 250 (≈ 501 µM) | 500 (≈ 1000 µM) | 250 (≈ 501 µM) | 200 (≈ 401 µM) | 500 (≈ 1000 µM) | 500 (≈ 1000 µM) | – | –
COc1ccc(-c2cc(N3CCCC3)n(-c3cccc(Cl)c3)c(=O)c2/N=N/c2ccc(Cl)cc2)cc1 | 500 (≈ 963 µM) | 500 (≈ 963 µM) | 1000 (≈ 1930 µM) | 500 (≈ 963 µM) | 500 (≈ 963 µM) | 1000 (≈ 1930 µM) | 1000 (≈ 1930 µM) | – | –
COc1ccc(-c2cc(N3CCCC3)n(-c3cccc(Cl)c3)c(=O)c2/N=N/c2ccc([N+](=O)[O-])cc2Cl)cc1 | 200 (≈ 354 µM) | 250 (≈ 443 µM) | 500 (≈ 886 µM) | 250 (≈ 443 µM) | 200 (≈ 354 µM) | 500 (≈ 886 µM) | 250 (≈ 443 µM) | – | –
COc1ccc(-c2cc(=O)n(-c3cccc(Cl)c3)c(N3CCCC3)c2/N=N/c2ccc(Cl)cc2)cc1 | 500 (≈ 963 µM) | 100 (≈ 193 µM) | 500 (≈ 963 µM) | 500 (≈ 963 µM) | 500 (≈ 963 µM) | 500 (≈ 963 µM) | 100 (≈ 193 µM) | – | –
COc1ccc(-c2cc(N3CCCC3)n(-c3cccc(Cl)c3)c(=O)c2/N=N/c2ccc(Cl)cc2[N+](=O)[O-])cc1 | 250 (≈ 443 µM) | 250 (≈ 443 µM) | 200 (≈ 354 µM) | 500 (≈ 886 µM) | 250 (≈ 443 µM) | 200 (≈ 354 µM) | 500 (≈ 886 µM) | 98 | 1000 (≈ 1770 µM)
COc1ccc(-c2cc(N3CCCC3)n(-c3cccc(Cl)c3)c(=O)c2/N=N/c2c(Cl)cc([N+](=O)[O-])cc2Cl)cc1 | 200 (≈ 334 µM) | 250 (≈ 417 µM) | 1000 (≈ 1670 µM) | 250 (≈ 417 µM) | 200 (≈ 334 µM) | 1000 (≈ 1670 µM) | 250 (≈ 417 µM) | – | –
COc1ccc(-c2cc(Cl)n(-c3cccc(Cl)c3)c(=O)c2)cc1 | 200 (≈ 578 µM) | 100 (≈ 289 µM) | 500 (≈ 1440 µM) | 100 (≈ 289 µM) | 200 (≈ 578 µM) | 500 (≈ 1440 µM) | 500 (≈ 1440 µM) | – | –
CO[C@H]1/C=C/O[C@@]2(C)Oc3c(C)c(O)c4c(O)c(c(/C=N/N5CCN(C)CC5)c(O)c4c3C2=O)NC(=O)/C(C)=C\C=C\[C@H](C)[C@H](O)[C@@H](C)[C@@H](O)[C@@H](C)[C@H](OC(C)=O)[C@@H]1C [RIFAMPIN] | – | – | – | – | – | – | – | 98 | 40 (≈ 48.6 µM)
COc1ccc(-c2cc(=O)n(-c3cccc(Cl)c3)c(N3CCCC3)c2/N=N/c2c(Cl)cc([N+](=O)[O-])c(Cl)c2Cl)cc1 | 200 (≈ 316 µM) | 250 (≈ 395 µM) | 1000 (≈ 1580 µM) | 250 (≈ 395 µM) | 200 (≈ 316 µM) | 1000 (≈ 1580 µM) | 250 (≈ 395 µM) | – | –
COc1ccc(-c2cc(=O)n(-c3cccc(Cl)c3)c(N3CCCC3)c2/N=N/c2cccc(C)c2)cc1 | 250 (≈ 501 µM) | 250 (≈ 501 µM) | 500 (≈ 1000 µM) | 250 (≈ 501 µM) | 200 (≈ 401 µM) | 500 (≈ 1000 µM) | 500 (≈ 1000 µM) | – | –
COc1ccc(-c2cc(=O)n(-c3cccc(Cl)c3)c(N3CCCC3)c2/N=N/c2cc(Cl)ccc2Cl)cc1 | 500 (≈ 903 µM) | 100 (≈ 181 µM) | > 1000 | 500 (≈ 903 µM) | 500 (≈ 903 µM) | > 1000 | 1000 (≈ 1810 µM) | 99 | 100 (≈ 181 µM)
COc1ccc(-c2cc(=O)n(-c3cccc(Cl)c3)c(N3CCCC3)c2/N=N/c2ccc(Cl)cc2[N+](=O)[O-])cc1 | 250 (≈ 443 µM) | 250 (≈ 443 µM) | 200 (≈ 354 µM) | 500 (≈ 886 µM) | 250 (≈ 443 µM) | 200 (≈ 354 µM) | 250 (≈ 443 µM) | 98 | 500 (≈ 886 µM)
COc1ccc(-c2cc(N3CCCC3)n(-c3cccc(Cl)c3)c(=O)c2/N=N/c2ccccc2)cc1 | 200 (≈ 412 µM) | 62.5 (≈ 129 µM) | 500 (≈ 1030 µM) | 100 (≈ 206 µM) | 250 (≈ 515 µM) | 500 (≈ 1030 µM) | 200 (≈ 412 µM) | – | –
COc1ccc(-c2cc(N3CCCC3)n(-c3cccc(Cl)c3)c(=O)c2/N=N/c2ccc(Cl)c(Cl)c2)cc1 | 200 (≈ 361 µM) | 62.5 (≈ 113 µM) | 500 (≈ 903 µM) | 200 (≈ 361 µM) | 500 (≈ 903 µM) | 1000 (≈ 1810 µM) | 100 (≈ 181 µM) | 99 | 250 (≈ 451 µM)
COc1ccc(-c2cc(=O)n(-c3cccc(Cl)c3)c(N3CCCC3)c2/N=N/c2cccc(Cl)c2)cc1 | 100 (≈ 193 µM) | 500 (≈ 963 µM) | 500 (≈ 963 µM) | 500 (≈ 963 µM) | 100 (≈ 193 µM) | 500 (≈ 963 µM) | 250 (≈ 481 µM) | – | –
COc1ccc(-c2cc(=O)n(-c3cccc(Cl)c3)c(N3CCCC3)c2/N=N/c2ccc(C)cc2)cc1 | 200 (≈ 401 µM) | 200 (≈ 401 µM) | 250 (≈ 501 µM) | 250 (≈ 501 µM) | 200 (≈ 401 µM) | 500 (≈ 1000 µM) | 250 (≈ 501 µM) | – | –
COc1ccc(-c2cc(N3CCCC3)n(-c3cccc(Cl)c3)c(=O)c2/N=N/c2ccccc2C)cc1 | 500 (≈ 1000 µM) | 200 (≈ 401 µM) | 1000 (≈ 2000 µM) | 500 (≈ 1000 µM) | 500 (≈ 1000 µM) | 1000 (≈ 2000 µM) | 1000 (≈ 2000 µM) | – | –
COc1ccc(-c2cc(=O)n(-c3cccc(Cl)c3)c(N3CCCC3)c2/N=N/c2cccc([N+](=O)[O-])c2)cc1 | 250 (≈ 472 µM) | 250 (≈ 472 µM) | 500 (≈ 943 µM) | 200 (≈ 377 µM) | 250 (≈ 472 µM) | 500 (≈ 943 µM) | 500 (≈ 943 µM) | – | –
COc1ccc(-c2cc(N3CCCC3)n(-c3cccc(Cl)c3)c(=O)c2/N=N/c2ccc([N+](=O)[O-])cc2)cc1 | 250 (≈ 472 µM) | 250 (≈ 472 µM) | > 1000 | 250 (≈ 472 µM) | 250 (≈ 472 µM) | > 1000 | 250 (≈ 472 µM) | – | –
COc1ccc(-c2cc(N3CCCC3)n(-c3cccc(Cl)c3)c(=O)c2)cc1 | 500 (≈ 1310 µM) | 250 (≈ 656 µM) | 1000 (≈ 2630 µM) | 500 (≈ 1310 µM) | 500 (≈ 1310 µM) | 1000 (≈ 2630 µM) | 1000 (≈ 2630 µM) | 99 | 500 (≈ 1310 µM)
COc1ccc(-c2cc(N3CCCC3)n(-c3cccc(Cl)c3)c(=O)c2/N=N/c2ccc(C)cc2)cc1 | 200 (≈ 401 µM) | 200 (≈ 401 µM) | 250 (≈ 501 µM) | 200 (≈ 401 µM) | 200 (≈ 401 µM) | 250 (≈ 501 µM) | 250 (≈ 501 µM) | – | –
